Laboratory results as given in ChEMBL document CHEMBL1201862, “PubChem BioAssay data set” (2004).
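Grown in 96-well plates, cells were treated for 48 hours with each compound at five concentrations. Insufficient inhibition: endpoint recorded as highest concentration tested. GI50 is the concentration that inhibits growth by half.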 Calls of active or inactive are those of the source. Rule as the data show it: active = GI50 up to about 1.1 µM and inactive = higher.

Key:
Assay in all cases: NCI-60 cell line screen, 48 h
[1] = test system: SNB-19
[2] = test system: DLD-1
[3] = test system: NCI-H460
[4] = test system: SF-268
[5] = test system: SN12C
[6] = test system: 786-0
[7] = test system: SF-539
[8] = test system: DMS-273
[9] = test system: NCI-H522
[10] = test system: IGROV-1
[11] = test system: CAKI-1
[12] = test system: K562
[13] = test system: SK-OV-3
[14] = test system: OVCAR-4
[15] = test system: HOP-62
[16] = test system: TK-10
[17] = test system: LOX IMVI
[18] = test system: HT-29
[19] = test system: SK-MEL-2
[20] = test system: U-251
[21] = test system: DMS-114
[22] = test system: NCI-H23
[23] = test system: HOP-92
[24] = test system: EKVX
[25] = test system: HCC 2998
[26] = test system: HOP-18
[27] = test system: ACHN
[28] = test system: KM12
[29] = test system: SR
[30] = test system: RXF 631
[31] = test system: MOLT-4
[32] = test system: OVCAR-3
[33] = test system: UACC-62
[34] = test system: A549
[35] = test system: M14
[36] = test system: RXF 393
[37] = test system: CCRF-CEM
[38] = test system: NCI-H226
[39] = test system: UO-31
[40] = test system: LXFL 529
[41] = test system: OVCAR-8
[42] = test system: SW-620
[43] = test system: COLO 205
[44] = test system: HCT-116
[45] = test system: SNB-75
[46] = test system: A498
[47] = test system: SNB-78
[48] = test system: Malme-3M
[49] = test system: OVCAR-5
[50] = test system: M19-MEL
[51] = test system: RPMI-8226
[52] = test system: UACC-257
[53] = test system: SF-295
[54] = test system: SK-MEL-28

Measured: GI50

Cn1cnc([N+](=O)[O-])c1Sc1nnc(-c2ccc(Cl)cc2)n1C
inactive: [1] 98.2 µM | [2] 11 µM | [3] 20.7 µM | [4] 20.3 µM | [5] 14.7 µM | [6] > 10 µM | [7] 16.2 µM | [8] 16.4 µM | [9] 3.17 µM | [10] 16.7 µM | [11] 15.9 µM | [12] 10.7 µM | [13] 51.2 µM | [14] 13.7 µM | [15] > 100 µM | [16] 17.7 µM | [17] 7.67 µM | [18] 15 µM | [19] 15.5 µM | [20] 16.3 µM | [21] 15.8 µM | [22] 16.6 µM | [23] 12.1 µM | [24] 5.79 µM | [25] 17.9 µM | [26] 5.25 µM | [27] 15.1 µM | [28] 20.1 µM | [29] 7.41 µM | [30] 15.6 µM | [31] 6.78 µM | [32] 13.9 µM | [33] 15.5 µM | [34] 48.9 µM | [35] 13.6 µM | [36] 3.15 µM | [37] 3.69 µM | [38] 21.2 µM | [39] 14.6 µM | [40] 10.4 µM | [41] 17.5 µM | [42] 11.3 µM | [43] 11.9 µM | [44] 13.1 µM | [45] 17.7 µM | [46] 27.8 µM | [47] 13.2 µM | [48] 10.6 µM | [49] 20.5 µM | [50] 14.1 µM | [51] 16.4 µM | [52] 12.7 µM | [53] 50 µM | [54] 14.2 µM
